pIC50: −log10 of the molar value.
Columns and labels:
[1] = test system: RKO colon adenocarcinoma cells (RKOp27) arrested by expression of ectopic p27Kip1; assay: Alamar Blue cell viability assay on RKOp27 cells arrested by Ponasterone A-induced p27Kip1 (cell cycle specific mode of action); type: cell-based; settings: Homo sapiens, RKOp27, 72 h, cells arrested by p27Kip1 induced with 10 μM Ponasterone A, 72 hours incubation, read-out: IC50 RKO p27 arrested
Outline: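 Viability measured by Alamar Blue fluorescence (ex 544, em 590 nm) after 72 h, 37 °C compound exposure in quadruplicate, normalized to untreated cells as 100%. Cells were p27Kip1-arrested RKOp27, induced with 10 μM Ponasterone A at seeding; compound added 24 h later.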

[2] = test system: RKO (RKOp27) human colon adenocarcinoma cells; assay: Alamar Blue cell viability assay, anti-proliferative/cytotoxic activity on proliferating RKOp27 cells; type: cell-based; settings: absence of Ponasterone A, 72 hours incubation, read-out: IC50 RKO p27 proliferating
Outline: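 RKOp27 subclone of RKO cells, 4000/well in DMEM with 10% FCS, was treated 24 h after seeding with semi-log compound dilutions in quadruplicate for 72 h at 37 °C, 5% CO2. Alamar Blue fluorescence (ex 544/em 590 nm) was read as % viability of untreated cells, and IC50 was taken from concentration-effect curves.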

SMILES | pIC50 [1] | pIC50 [2]
N#Cc1c(NC(=O)/C=C/c2ccccc2)sc2c1CCN(C(=O)OCC(O)CO)C2 (stereo not drawn) [Example 128, 3-Cyano-2-((E)-3-phenyl-allanoylamino)-4,7-dihydro-5H-thieno[2,3-c]pyridine-6-carboxylic acid 2,3-dihydroxy-propyl ester] | ≤ 4.00 | ≥ 5.70
COCCOCCOC(=O)N1CCc2c(sc(NC(=O)/C=C/c3ccccc3)c2C#N)C1 [Example 129, 3-Cyano-2-((E)-3-phenyl-allanoylamino)-4,7-dihydro-5H-thieno[2,3-c]pyridine-6-carboxylic acid 2-(2-methoxy-ethoxy)-ethyl ester] | ≤ 4.00 | ≥ 5.70
COC(=O)COC(=O)N1CCc2c(sc(NC(=O)/C=C/c3ccccc3)c2C#N)C1 [Example 133, 3-Cyano-2-((E)-3-phenyl-allanoylamino)-4,7-dihydro-5H-thieno[2,3-c]pyridine-6-carboxylic acid methoxycarbonylmethyl ester] | ≤ 4.00 | ≥ 5.70
CC(=O)NCCOC(=O)N1CCc2c(sc(NC(=O)/C=C/c3ccccc3)c2C#N)C1 [Example 134, 3-Cyano-2-((E)-3-phenyl-allanoylamino)-4,7-dihydro-5H-thieno[2,3-c]pyridine-6-carboxylic acid 2-acetylamino-ethyl ester] | ≤ 4.00 | ≥ 5.70
N#Cc1c(NC(=O)/C=C/c2ccccc2)sc2c1CCN(C(=O)OCCO)C2 [Example 135, 3-Cyano-2-((E)-3-phenyl-allanoylamino)-4,7-dihydro-5H-thieno[2,3-c]pyridine-6-carboxylic acid 2-hydroxy-ethyl ester] | ≤ 4.00 | ≥ 5.70
N#Cc1c(NC(=O)/C=C/c2ccccc2)sc2c1CCN(C(=O)OCCn1ccnc1)C2 [Example 136, 3-Cyano-2-((E)-3-phenyl-allanoylamino)-4,7-dihydro-5H-thieno[2,3-c]pyridine-6-carboxylic acid 2-imidazol-1-yl-ethyl ester] | ≤ 4.00 | ≥ 5.70
COCCOC(=O)N1CCc2c(sc(NC(=O)/C=C/c3ccccc3OC)c2C#N)C1 [Example 137, 3-Cyano-2-[(E)-3-(2-methoxy-phenyl)-allanoylamino]-4,7-dihydro-5H-thieno[2,3-c]pyridine-6-carboxylic acid 2-methoxy-ethyl ester] | ≤ 4.00 | ≥ 5.70
COc1ccccc1/C=C/C(=O)Nc1sc2c(c1C#N)CCN(C(=O)OCc1ccccn1)C2 [Example 138, 3-Cyano-2-[(E)-3-(2-methoxy-phenyl)-allanoylamino]-4,7-dihydro-5H-thieno[2,3-c]pyridine-6-carboxylic acid pyridin-2-ylmethyl ester] | ≤ 4.00 | ≥ 5.70
COc1ccccc1/C=C/C(=O)Nc1sc2c(c1C#N)CCN(C(=O)OCCc1ccccn1)C2 [Example 139, 3-Cyano-2-[(E)-3-(2-methoxy-phenyl)-allanoylamino]-4,7-dihydro-5H-thieno[2,3-c]pyridine-6-carboxylic acid 2-pyridin-2-yl-ethyl ester] | ≤ 4.00 | ≥ 5.70
COc1ccccc1/C=C/C(=O)Nc1sc2c(c1C#N)CCN(C(=O)OCc1cccnc1)C2 [Example 140, 3-Cyano-2-[(E)-3-(2-methoxy-phenyl)-allanoylamino]-4,7-dihydro-5H-thieno[2,3-c]pyridine-6-carboxylic acid pyridin-3-ylmethyl ester] | ≤ 4.00 | ≥ 5.70
COCCOC(=O)N1CCc2c(sc(NC(=O)/C=C/c3ccccc3Cl)c2C#N)C1 [Example 142, 2-[(E)-3-(2-Chloro-phenyl)-allanoylamino]-3-cyano-4,7-dihydro-5H-thieno[2,3-c]pyridine-6-carboxylic acid 2-methoxy-ethyl ester] | ≤ 4.00 | ≥ 5.70
COc1ccc(OC(=O)N2CCc3c(sc(NC(=O)/C=C/c4cccnc4)c3C#N)C2)cc1 [Example 143, 3-Cyano-2-((E)-3-pyridin-3-yl-allanoylamino)-4,7-dihydro-5H-thieno[2,3-c]pyridine-6-carboxylic acid 4-methoxy-phenyl ester] | ≤ 4.00 | ≥ 5.70
N#Cc1c(NC(=O)/C=C/c2cccnc2)sc2c1CCN(C(=O)OCc1ccccc1)C2 [Example 144, 3-Cyano-2-((E)-3-pyridin-3-yl-allanoylamino)-4,7-dihydro-5H-thieno[2,3-c]pyridine-6-carboxylic acid benzyl ester] | ≤ 4.00 | ≥ 5.70
CCCOC(=O)N1CCc2c(sc(NC(=O)/C=C/c3cccnc3)c2C#N)C1 [Example 145, 3-Cyano-2-((E)-3-pyridin-3-yl-allanoylamino)-4,7-dihydro-5H-thieno[2,3-c]pyridine-6-carboxylic acid propyl ester] | ≤ 4.30 | ≥ 6.30
COc1ccc(CCOC(=O)N2CCc3c(sc(NC(=O)/C=C/c4cccnc4)c3C#N)C2)cc1 [Example 146, 3-Cyano-2-((E)-3-pyridin-3-yl-allanoylamino)-4,7-dihydro-5H-thieno[2,3-c]pyridine-6-carboxylic acid 2-(4-methoxy-phenyl)-ethyl ester] | ≤ 4.00 | ≥ 5.70
COc1cccc(COC(=O)N2CCc3c(sc(NC(=O)/C=C/c4cccnc4)c3C#N)C2)c1 [Example 147, 3-Cyano-2-((E)-3-pyridin-3-yl-allanoylamino)-4,7-dihydro-5H-thieno[2,3-c]pyridine-6-carboxylic acid 3-methoxy-benzyl ester] | ≤ 4.00 | ≥ 5.70
N#Cc1c(NC(=O)/C=C/c2cccnc2)sc2c1CCN(C(=O)OCCCc1ccccc1)C2 [Example 148, 3-Cyano-2-((E)-3-pyridin-3-yl-allanoylamino)-4,7-dihydro-5H-thieno[2,3-c]pyridine-6-carboxylic acid 3-phenyl-propyl ester] | ≤ 4.00 | ≥ 5.70
N#Cc1c(NC(=O)/C=C/c2cccnc2)sc2c1CCN(C(=O)OCc1ccccn1)C2 [Example 149, 3-Cyano-2-((E)-3-pyridin-3-yl-allanoylamino)-4,7-dihydro-5H-thieno[2,3-c]pyridine-6-carboxylic acid pyridin-2-ylmethyl ester] | ≤ 4.00 | ≥ 5.70
N#Cc1c(NC(=O)/C=C/c2cccnc2)sc2c1CCN(C(=O)OCc1cccnc1)C2 [Example 150, 3-Cyano-2-((E)-3-pyridin-3-yl-allanoylamino)-4,7-dihydro-5H-thieno[2,3-c]pyridine-6-carboxylic acid pyridin-3-ylmethyl ester] | ≤ 4.00 | ≥ 5.70
COC(=O)c1ccc(OC(=O)N2CCc3c(sc(NC(=O)/C=C/c4cccnc4)c3C#N)C2)cc1 [Example 151, 3-Cyano-2-((E)-3-pyridin-3-yl-allanoylamino)-4,7-dihydro-5H-thieno[2,3-c]pyridine-6-carboxylic acid 4-methoxycarbonyl-phenyl ester] | ≤ 4.00 | ≥ 5.70
COc1cccc(CCOC(=O)N2CCc3c(sc(NC(=O)/C=C/c4cccnc4)c3C#N)C2)c1 [Example 152, 3-Cyano-2-((E)-3-pyridin-3-yl-allanoylamino)-4,7-dihydro-5H-thieno[2,3-c]pyridine-6-carboxylic acid 2-(3-methoxy-phenyl)-ethyl ester] | ≤ 4.00 | ≥ 5.70

— patent US7723523B2, “Tetrahydropyridothiophenes” (4SC AG, priority 2004, dated 2010)
